Laboratory results as given in US12168781B2, “Production method for T cells or NK cells, medium for culturing T cells or NK cells, method for culturing T cells or NK cells, method for maintaining undifferentiated state of undifferentiated T cells, and growth-accelerating agent for T cells or NK cells” (KIRIN HOLDINGS KABUSHIKI KAISHA, priority 2018, dated 2024).

What was measured:
Format in all cases: cell-based, human
[1] = test system: T-iPS-T cells; assay: Number of viable T-iPS-T cells under feeder-free culture (CD3/CD28 Dynabeads, Cell Count Reagent SF, absorbance 450 nm/650 nm); settings: for number of viable cells (OD value): T-iPS-T cells after 1st expansion, DMSO control 0.225 ± 0.017
Method: T-iPS-T cells (1,500 cells/well) after 1st expansion were seeded and cultured in RPMI-1640 medium (SIGMA, R8758) supplemented with 15% FBS (CORNING, 35-076-CV, 35076104R), 1% PSG (SIGMA, G1146), PAA (50 μg/mL, Nacalai Tesque, 03420-52), ITS-G, IL-7 (5 ng/mL), IL-12 (50 ng/mL), IL-15 (5 ng/mL), IL-18 (50 ng/mL), IL-21 (20 ng/mL), and z-VAD-fmk (10 μM). The cells were stimulated by adding CD3/CD28 Dynabeads (Gibco, 11131D, the “Dynabeads” is a registered trademark) (4,500 beads/well) thereto, and 1,080 compounds [MedChemExpress, Apoptosis Compound Library (HY-L003), Cell Cycle/DNA Damage Compound Library (HY-L004), JAK/STAT Compound Library (HY-L008), MAPK Compound Library (HY-L010), NF-kappaB Compound Library (HY-L014), PI3K/Akt/mTOR Compound Library (HY-L015), and Wnt/Hedgehog/Notch Compound Library (HY-L020)] were added thereto (one type per well) at a final concentration of 1 μM, and then, the cells were cultured at 37° C. under 5% CO2.
DMSO (0.1%) that is a solvent for the compound was used as a control. After 6 days, the number of viable cells was measured using Cell Count Reagent SF (Nacalai Tesque, 07553) and a microplate reader (SoftMax Pro 5.X, Molecular Devices, 450 nm/650 nm).
A calibration curve for cell number was set as follows. When measuring the number of viable cells, 12-point serial dilution was performed for the same cells as those used in the screening, and the cells were seeded (0 to 1,536,000 cells/well) in RPMI-1640 medium supplemented with 15% FBS, 1% PSG, PAA, ITS-G, IL-7 (5 ng/mL) and IL-15 (5 ng/mL). The number of viable cells was measured together with the screening samples, and a calibration curve for WST-8 assay was formed.
In order to further evaluate the results obtained in Example 4, reproducibility was evaluated. As a method therefor, the same method as in Example 4 was used to carry out culturing and evaluation. As compounds, 20 compounds were selected and used among the compounds used in Example 4 including berbamine, and DMSO (0.1%) that is a solvent for the compound was used as a control. Note that in a statistical analysis, a Student's t-test was used (*: p<0.05).
The effect of a berbamine derivative on the proliferation of T cells was verified. As a method therefor, T-iPS-T cells after 1st expansion were cultured in the same manner as in Example 4, and berbamine (BBM) or each of 13 types of derivatives [BBMD1 to 13, Hebei Sundia MediTech Company Ltd.] was added thereto (one type per well) at a final concentration of 0.1 nM, 1 nM, 10 nM, 100 nM, or 1 μM, and then, the cells were cultured at 37° C. under 5% CO2. DMSO (0.1%) that is a solvent for the compound was used as a control.
After culturing for 6 days, the number of viable cells was measured using Cell Count Reagent SF (Nacalai Tesque, 07553) and a microplate reader (SoftMax Pro 5. X, Molecular Devices, 450 nm/650 nm), and the OD value was used as data. Note that in a statistical analysis, a Student's t-test was used (*: p<0.05). 1.

[2] = test system: T-iPS-T cells; assay: Long-term culturing of T-iPS-T cells obtained by differentiation induction using a feeder, trypan blue count; settings: 1 μM, FIG. 15(B)
Method: Further, evaluation of T-iPS-T cells obtained by differentiation induction using a feeder was also performed. The T-iPS-T cells (1,500 cells/well) obtained by differentiation induction in Example 1 were seeded, and stimulated with CD3/CD28 Dynabeads in the same manner as in Example 4, and berbamine (BBM) at 1 μM or MilliQ water that is a solvent for the compound as a control was added thereto, and the cells were cultured in the same culture medium as in Example 6. The cells were collected on day 14, day 28, and day 42, and the number of viable cells was counted by a trypan blue method, and the cells were restimulated and cultured. The cells were collected on day 56, and the number of viable cells was counted.

[3] = test system: NK cells; assay: Proliferation of NK cells purified from PBMCs, trypan blue count; settings: 1 μM, 14 days, NK cells of 3 donors, FIG. 20(C)
Description: The effect of berbamine on NK cells was examined. As a method therefor, NK cells were purified from PBMCs (CTL, Inc.) derived from 3 healthy donor subjects using NK Cell Isolation Kit, human (Miltenyi, 130-092-657).
The NK cells before and after purification were washed with a staining solution (PBS containing 2% FBS) and then stained with CD56-FITC (BioLegend, 362546) and CD3-APC-Cy7 (BioLegend, 300318).
After washing, the cells were resuspended in the staining solution containing propidium iodide and measured using a BD FACSCanto II Flow Cytometer (BD Bioscience). The ratios of CD3(−) and CD56(+) cells in the PI-negative cell population analyzed by FlowJo 10 were confirmed.
As shown in FIG. 20(B), the ratios of CD3(−) and CD56(+) cells showing NK cells were 90% or more, which were sufficient. The purified NK cells (37,000 cells/well) were seeded, and cultured using MEM Alpha medium (Gibco, 12571-063) supplemented with 15% FBS (Biological Industries, 04-001-1A), L-Ascorbic Acid 2-Phosphate Sesquimagnesium Salt Hydrate (L-asc-2P, 50 μg/mL, nacalai tesque, 13570-66), ITS-G, IL-7 (10 ng/mL), and IL-15 (5 ng/mL).
To the culture medium, berbamine (BBM) at 1 μM or MilliQ water that is a solvent for the compound as a control was added, and after culturing for 14 days, the number of viable cells was counted by a trypan blue method.

COc1cc2c3cc1Oc1c(OC)c(OC)cc4c1[C@@H](Cc1ccc(O)c(c1)Oc1ccc(cc1)C[C@@H]3N(C)CC2)N(C)CC4 [berbamine]
number of viable cells (OD value) ([1]; 0.1 nM, 6 days): 0.257 ± 0.018
number of viable cells (OD value) ([1]; 1 nM, 6 days): 0.266 ± 0.024
number of viable cells (OD value) ([1]; 10 nM, 6 days): 0.275 ± 0.019 *
number of viable cells (OD value) ([1]; 100 nM, 6 days): 0.282 ± 0.031 *
number of cells compared with DMSO (reproducibility of the screening) ([1]; 1 μM, 20 compounds, Student's t-test, FIG. 11): significant increase in the number of cells
number of viable cells, rank among the 1,080 compounds screened ([1]; 1 μM, 6 days, FIG. 6): highest number of viable cells
number of viable cells (OD value) ([1]; 1 μM, 6 days): 0.505 ± 0.034 ***
period for which the cells could be cultured ([2]; restimulated on day 14, 28, 42, MilliQ water control could not be cultured after day 28): 56 days
proliferation of the cells in long-term culturing ([2]; vs MilliQ water): enhancement of the proliferation of the cells
number of NK cells compared with MilliQ water [3]: increase in the number of NK cells
